# Measured values: patent US20140193802A1, “IDENTIFICATION OF AN ALTERED THERAPEUTIC SUSCEPTIBILITY TO ANTI-HCMV COMPOUNDS AND OF A RESISTANCE AGAINST ANTI-HCMV COMPOUNDS” (priority 2012, published 2014)
# Like-named read-outs stand apart in the source and are kept apart here.
# Columns and labels:
# Format in all cases: cell-based, human cytomegalovirus (HCMV)
# [1] = tested on: RV-HG UL56-C325Yrev; test: GFP-RA, marker transfer revertant
# Experimental: (§1) HCMV Fluorescence Reduction Assay (GFP-RA)
# (§2) The susceptibilities of recombinant HCMV laboratory strains expressing GFP were determined by a GFP-based fluorescence reduction assay. For standard assays, 1.5×10^4 NHDF cells/well were cultured in black 96-well plates (Greiner Bio-One, Germany) and infected with either HCMV-GFP (MOI, 0.1) or RV-HG (MOI, 0.2 to 0.5). After virus adsorption, the virus inoculum was replaced with 200 μl fresh medium. Thereafter, 100 μl medium containing the test compounds was added to wells of horizontal row G, followed by serial 3-fold dilutions up to row A. All drug concentrations were tested at least in duplicate. Wells of the horizontal row H served as the virus control. Plates were incubated at 37° C. for 7 days. The medium was replaced by 200 μl PBS, and GFP units (GFPU) were determined by a charge-coupled-device-camera-based fluorescence detector (FluoBox; Bayer Technology Services GmbH, Leverkusen, Germany), which captures 96 images simultaneously. Drug effects were calculated as a percentage of reduction in GFPU in the presence of each drug concentration compared to the GFPU determined in the absence of drug. EC50 and EC90 values (drug concentrations producing 50% and 90% reduction in GFPU) were calculated using nonlinear regression curve fit with a variable slope. GraphPad Prism 3.02 or 4.0 software (GraphPad Software Inc., La Jolla, Calif.) was used for all analyses.
# (§3) The HCMV AD169-derived bacterial artificial chromosome (BAC) pHG served as the backbone for the construction of the mutant viruses. The markerless introduction of point mutations into pHG was done using a two-step recombination protocol according to the en passant method. Briefly, a recombination fragment containing the I-SceI-AphAI cassette from plasmid pEPKan-S was obtained by PCR using primers containing ˜60 bp of homology to the intended integration site in ORF UL56 of BAC pHG and ˜20 bp specific for pEPKan-S. This fragment was electroporated into Escherichia coli GS1783 that harbored the pHG BAC. […] After successful kanamycin selection, all non-HCMV sequences were removed by an intrabacterial ISceI digest and a subsequent second Red recombination, resulting in the scarless repair of the mutated UL56 gene in the background of BAC pHG. The integrity of the generated BACs was confirmed by restriction enzyme digestion and sequencing. To reconstitute virus mutants, the recombinant BACs were transfected into permissive MRC5 cells. At least two independent virus clones per mutation were generated and evaluated.
# [2] = tested on: RV-HG (wt-HCMV); test: HCMV fluorescence reduction assay (GFP-RA)
# Experimental: as §1, §2, §3
# [3] = tested on: RV-HG UL56-R369M; test: GFP-RA, marker transfer mutant; settings: for Resistance index (RI) = EC50 indicated RV-HG mutant/EC50 RV-HG wt: RV-HG UL56-R369M vs RV-HG wt
# Experimental: as §1, §2, §3
# [4] = tested on: RV-HG UL56-L241P; test: GFP-RA, marker transfer mutant
# Experimental: as §1, §2, §3
# [5] = tested on: RV-HG UL56-V236M; test: GFP-RA, marker transfer mutant
# Experimental: as §1, §2, §3
# [6] = tested on: RV-HG UL56-V231L; test: GFP-RA, marker transfer mutant
# Experimental: as §1, §2, §3
# [7] = tested on: RV-HG UL56-C325Y; test: GFP-RA, marker transfer mutant
# Experimental: as §1, §2, §3
# [8] = tested on: RV-HG UL56-R369S; test: GFP-RA, marker transfer mutant
# Experimental: as §1, §2, §3
# [9] = tested on: RV-HG UL56-L241P/R369S; test: GFP-RA, marker transfer mutant; settings: for Resistance index (RI) = EC50 indicated RV-HG mutant/EC50 RV-HG wt: RV-HG UL56-L241P/R369S vs RV-HG wt
# Experimental: as §1, §2, §3
# [10] = tested on: RV-HG-UL56 mutants; test: GFP-RA, drug susceptibility profile of the virus mutants; settings: fluorescence reduction assays; for BAY 38-4766 and BDCRB with the exception of the strain carrying UL56 R369M
# Experimental: as §1, §2
# as §3, with “The integrity of the generated BACs was confirmed by restriction enzyme digestion and sequencing.” left out
# [11] = Human betaherpesvirus 5, RV-HG UL56-R369M, fluorescence reduction assay, mean ± SD, read-out: EC50
# [12] = Human betaherpesvirus 5, RV-HG UL56-V231L, fluorescence reduction assay, mean ± SD, read-out: EC50
# [13] = Human betaherpesvirus 5, RV-HG UL56-R369S, fluorescence reduction assay, mean ± SD, read-out: EC50
# [14] = Human betaherpesvirus 5, RV-HG UL56-L241P/R369S, fluorescence reduction assay, mean ± SD, read-out: EC50
# [15] = Human betaherpesvirus 5, RV-HG UL56-C325Yrev, fluorescence reduction assay, mean ± SD, read-out: EC50
# [16] = Human betaherpesvirus 5, RV-HG (wt-HCMV), fluorescence reduction assay, mean ± SD, read-out: EC50
# [17] = Human betaherpesvirus 5, RV-HG UL56-L241P, fluorescence reduction assay, mean ± SD, read-out: EC50
# [18] = Human betaherpesvirus 5, RV-HG UL56-V236M, fluorescence reduction assay, mean ± SD, read-out: EC50
# [19] = Human betaherpesvirus 5, RV-HG UL56-C325Y, fluorescence reduction assay, mean ± SD, read-out: EC50
SMILES,"EC50 [3, 11] [nM]","EC50 [6, 12] [nM]","EC50 [8, 13] [nM]","EC50 [9, 14] [nM]",sensitivity of the RV-HG-UL56 mutants compared with the parental wild-type virus RV-HG [10],"EC50 [1, 15] [nM]","EC50 [2, 16] [nM]","EC50 [4, 17] [nM]","EC50 [5, 18] [nM]","EC50 [7, 19] [nM]",further results
Nc1nc2c(ncn2COCCO)c(=O)[nH]1 [Aciclovir],88000 ± 29000,29000 ± 9000,45000 ± 10000,81000 ± 33000,,,,,,,EC50 ([1]; Human betaherpesvirus 5): 55000 ± 18000 nM; EC50 ([2]; Human betaherpesvirus 5): 74000 ± 40000 nM; EC50 ([4]; Human betaherpesvirus 5): 53000 ± 12000 nM; EC50 ([5]; Human betaherpesvirus 5): 80000 ± 21000 nM; EC50 ([7]; Human betaherpesvirus 5): 49000 ± 16000 nM
CN(C)c1cccc2c(S(=O)(=O)Nc3ccc(NC(=O)C(C)(C)CO)cc3)cccc12 [BAY384766],,360 ± 80,,,comparably active,580 ± 60,410 ± 150,340 ± 140,330 ± 80,1070 ± 140,EC50 ([3]; Human betaherpesvirus 5): 1750 ± 160 nM; Resistance index (RI) = EC50 indicated RV-HG mutant/EC50 RV-HG wt [3]: 4; EC50 ([8]; Human betaherpesvirus 5): 680 ± 130 nM; EC50 ([9]; Human betaherpesvirus 5): 840 ± 310 nM; Resistance index (RI) = EC50 indicated RV-HG mutant/EC50 RV-HG wt [9]: 2
OC[C@H]1O[C@@H](n2c(Br)nc3cc(Cl)c(Cl)cc32)[C@H](O)[C@@H]1O [BDCRB],,,,,comparably active,,,,,,"EC50 ([1]; RV-HG UL56-C325Yrev, fluorescence reduction assay, mean ± SD, read-out: EC50): 290 ± 40 nM; EC50 ([2]; RV-HG (wt-HCMV), fluorescence reduction assay, mean ± SD, read-out: EC50): 330 ± 120 nM; EC50 ([3]; RV-HG UL56-R369M, fluorescence reduction assay, mean ± SD, read-out: EC50): 110 ± 50 nM; EC50 ([4]; RV-HG UL56-L241P, fluorescence reduction assay, mean ± SD, read-out: EC50): 270 ± 40 nM; EC50 ([5]; RV-HG UL56-V236M, fluorescence reduction assay, mean ± SD, read-out: EC50): 170 ± 30 nM; EC50 ([6]; RV-HG UL56-V231L, fluorescence reduction assay, mean ± SD, read-out: EC50): 210 ± 40 nM; EC50 ([7]; RV-HG UL56-C325Y, fluorescence reduction assay, mean ± SD, read-out: EC50): 300 ± 40 nM; EC50 ([8]; RV-HG UL56-R369S, fluorescence reduction assay, mean ± SD, read-out: EC50): 190 ± 20 nM; EC50 ([9]; RV-HG UL56-L241P/R369S, fluorescence reduction assay, mean ± SD, read-out: EC50): 300 ± 140 nM"
Nc1ccn(C[C@@H](CO)OCP(=O)(O)O)c(=O)n1 [Cidofovir],180 ± 110,90 ± 20,160 ± 50,200 ± 110,did not differ,320 ± 130,250 ± 170,210 ± 90,260 ± 180,350 ± 50,
"N#CC1(C(=O)Nc2cc(F)cc(NS(=O)(=O)c3ccc(-c4noc(-c5cccc(N)n5)n4)cc3)c2)CC1 [Formula (X), N-{3-[({4-[5-(6-Aminopyridin-2-yl)-1,2,4-oxadiazol-3-yl]phenyl}sulfonyl)amino]-5-fluorophenyl}-1-cyanocyclopropanecarboxamide]",96 ± 18,7.1 ± 1.2,29.5 ± 13.7,41.6 ± 18,,31.7 ± 2.4,14.1 ± 7.9,18.3 ± 10,8.6 ± 1.3,36.7 ± 3.9,Resistance index (RI) = EC50 indicated RV-HG mutant/EC50 RV-HG wt [3]: 7; Resistance index (RI) = EC50 indicated RV-HG mutant/EC50 RV-HG wt ([8]; RV-HG UL56-R369S vs RV-HG wt): 2; Resistance index (RI) = EC50 indicated RV-HG mutant/EC50 RV-HG wt [9]: 3
O=C(O)P(=O)(O)O [Foscarnet],76000 ± 25000,,61000 ± 21000,62000 ± 30000,did not differ,178000 ± 12000,111000 ± 55000,115000 ± 71000,76000 ± 35000,126000 ± 20000,EC50 ([6]; Human betaherpesvirus 5): 67000 ± 18000 nM
CC(C)Nc1nc2cc(Cl)c(Cl)cc2n1[C@H]1O[C@@H](CO)[C@H](O)[C@@H]1O [Maribavir],,,80 ± 30,,,180 ± 70,180 ± 110,140 ± 70,,290 ± 140,
